Source: paper PMC12621189, “Optimization of Selective and CNS Penetrant Alkyne-Based TREK Inhibitors: The Discovery and Characterization of ONO-9517601 (VU6022856) and ONO-7927846 (VU6024391)” (Journal of Medicinal Chemistry, 2025)

What was measured:
DAT = DAT (Homo sapiens, UniProt Q01959); experiment: Functional assay, DAT; type: biochemical
TASK-2 = TASK-2 (Homo sapiens, UniProt O95279); experiment: K2P family selectivity, TASK-2; type: cell-based
TASK-1 = TASK-1 (Homo sapiens, UniProt O14649); experiment: K2P family selectivity, TASK-1; type: cell-based
dopamine transporter DAT = biological target: T1, dopamine transporter DAT (Homo sapiens, UniProt Q01959); experiment: Radioligand binding, dopamine transporter
T1 construct: purchased Eurofins

THIK-1 = THIK-1 (Homo sapiens, UniProt Q9HB14); experiment: K2P family selectivity, THIK-1; type: cell-based
TRAAK = TRAAK (Homo sapiens, UniProt Q9NYG8); experiment: K2P family selectivity, TRAAK; type: cell-based
sodium channel site 2 = experiment: Radioligand binding, sodium channel site 2
[1] = radioligand binding displacement, 10 μM

T1 sequence (Q01959 whole entry): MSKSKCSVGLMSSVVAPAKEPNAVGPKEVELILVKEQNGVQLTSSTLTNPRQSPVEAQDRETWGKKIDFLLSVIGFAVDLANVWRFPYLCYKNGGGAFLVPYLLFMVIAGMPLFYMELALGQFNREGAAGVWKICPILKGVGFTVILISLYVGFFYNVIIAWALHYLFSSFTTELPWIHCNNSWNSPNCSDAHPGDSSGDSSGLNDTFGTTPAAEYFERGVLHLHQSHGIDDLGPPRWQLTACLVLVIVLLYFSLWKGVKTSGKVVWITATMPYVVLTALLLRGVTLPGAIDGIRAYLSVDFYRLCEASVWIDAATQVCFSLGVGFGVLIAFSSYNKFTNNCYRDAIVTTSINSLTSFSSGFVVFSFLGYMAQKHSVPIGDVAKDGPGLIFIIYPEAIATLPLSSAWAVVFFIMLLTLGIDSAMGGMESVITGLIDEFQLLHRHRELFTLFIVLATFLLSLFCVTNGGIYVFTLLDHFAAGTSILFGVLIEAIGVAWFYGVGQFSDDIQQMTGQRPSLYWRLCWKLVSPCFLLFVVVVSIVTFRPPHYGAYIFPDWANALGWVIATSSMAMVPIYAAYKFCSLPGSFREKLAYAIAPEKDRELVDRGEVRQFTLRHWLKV
DAT, sequence (Q01959 whole entry, species assumed): as the sequence (Q01959 whole entry) above
THIK-1, sequence (Q9HB14 whole entry, species assumed): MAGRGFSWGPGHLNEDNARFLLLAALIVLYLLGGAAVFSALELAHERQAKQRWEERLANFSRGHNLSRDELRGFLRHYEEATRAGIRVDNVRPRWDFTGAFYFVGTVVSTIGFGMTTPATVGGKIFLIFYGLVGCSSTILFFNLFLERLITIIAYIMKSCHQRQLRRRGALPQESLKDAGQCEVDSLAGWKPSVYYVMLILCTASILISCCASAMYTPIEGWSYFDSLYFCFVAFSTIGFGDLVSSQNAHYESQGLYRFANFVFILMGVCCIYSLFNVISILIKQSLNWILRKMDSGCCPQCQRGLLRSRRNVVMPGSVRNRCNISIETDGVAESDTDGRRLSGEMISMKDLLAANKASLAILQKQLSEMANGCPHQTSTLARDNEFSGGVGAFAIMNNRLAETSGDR
TRAAK, sequence (Q9NYG8 whole entry, species assumed): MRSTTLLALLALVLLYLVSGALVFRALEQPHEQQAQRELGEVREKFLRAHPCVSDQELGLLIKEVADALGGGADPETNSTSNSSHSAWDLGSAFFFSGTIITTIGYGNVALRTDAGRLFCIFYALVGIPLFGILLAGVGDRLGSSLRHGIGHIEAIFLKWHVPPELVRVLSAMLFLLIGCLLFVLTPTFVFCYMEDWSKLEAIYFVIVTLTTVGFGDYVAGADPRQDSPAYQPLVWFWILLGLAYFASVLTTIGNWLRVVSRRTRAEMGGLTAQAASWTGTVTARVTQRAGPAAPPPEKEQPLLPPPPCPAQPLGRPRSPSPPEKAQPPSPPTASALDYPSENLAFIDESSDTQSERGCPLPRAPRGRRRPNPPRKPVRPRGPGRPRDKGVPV
TASK-1, sequence (O14649 whole entry, species assumed): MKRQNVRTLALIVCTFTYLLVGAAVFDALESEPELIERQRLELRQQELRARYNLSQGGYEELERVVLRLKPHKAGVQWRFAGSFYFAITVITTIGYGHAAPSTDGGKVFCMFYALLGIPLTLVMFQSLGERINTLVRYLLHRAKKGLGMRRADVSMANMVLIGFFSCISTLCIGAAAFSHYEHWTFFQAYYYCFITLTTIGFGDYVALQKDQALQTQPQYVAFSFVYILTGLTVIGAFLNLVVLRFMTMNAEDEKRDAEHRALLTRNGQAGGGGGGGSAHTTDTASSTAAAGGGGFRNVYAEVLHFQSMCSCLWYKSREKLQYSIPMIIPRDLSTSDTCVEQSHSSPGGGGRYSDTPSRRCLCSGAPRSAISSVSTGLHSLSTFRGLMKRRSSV
TASK-2, sequence (O95279 whole entry, species assumed): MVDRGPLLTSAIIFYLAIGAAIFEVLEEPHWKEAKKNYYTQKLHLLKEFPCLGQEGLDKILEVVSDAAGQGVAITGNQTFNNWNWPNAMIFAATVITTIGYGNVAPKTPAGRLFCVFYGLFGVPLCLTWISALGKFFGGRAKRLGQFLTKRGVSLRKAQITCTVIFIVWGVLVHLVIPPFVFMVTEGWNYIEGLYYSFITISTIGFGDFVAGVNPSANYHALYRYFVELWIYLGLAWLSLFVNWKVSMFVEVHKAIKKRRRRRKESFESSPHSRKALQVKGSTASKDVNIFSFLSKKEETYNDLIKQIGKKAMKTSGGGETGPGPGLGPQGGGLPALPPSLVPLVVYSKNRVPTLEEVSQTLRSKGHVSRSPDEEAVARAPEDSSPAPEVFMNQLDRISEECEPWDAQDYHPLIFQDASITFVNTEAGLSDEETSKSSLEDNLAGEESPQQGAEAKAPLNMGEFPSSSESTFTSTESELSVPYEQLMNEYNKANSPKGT

`CC(=O)N1CCC(n2ncc(Cl)c2C(=O)Nc2ncc(C#Cc3ccccc3)cc2C)CC1` [Compound 10, 1-(1-Acetylpiperidin-4-yl)-4-chloro-N-(3-methyl-5-(phenylethynyl)pyridin-2-yl)-1H-pyrazole-5-carboxamide] was tested. Which IC50 (DAT) did it give?
Its IC50 is 1210 nM.

And the TASK-2 inhibition (TASK-2)?
The TASK-2 inhibition was “nothing significant”.

What about the TASK-1 inhibition (TASK-1) of the same compound?
The TASK-1 inhibition was “nothing significant”.

And the IC50 (dopamine transporter DAT; follow-up binding)?
Its IC50 is 2860 nM.

What about the inhibition at 10 µM (dopamine transporter DAT; [1]) of the same compound?
Its inhibition at 10 µM is 78%.

And the THIK-1 inhibition (THIK-1)?
Its THIK-1 inhibition is “nothing significant”.

And the inhibition at 10 µM (TRAAK)?
Its inhibition at 10 µM is 84%.

`CC(=O)N1CC[C@@H](n2ncc(Cl)c2C(=O)Nc2ncc(C#Cc3ccc(F)cc3)cc2C)[C@H](F)C1` [Compound 11, 1-((3R,4R)-1-Acetyl-3-fluoropiperidin-4-yl)-4-chloro-N-(5-((4-fluorophenyl)ethynyl)-3-methylpyridin-2-yl)-1H-pyrazole-5-carboxamide] was tested. Which IC50 (sodium channel site 2; follow-up binding) did it give?
Its IC50 is 9.13 µM.

What about the “sodium channel site 2 inhibition at 10 μM” value (sodium channel site 2; [1]) of the same compound?
The value was 56%.
